Assay [1] deals with T1, human adenosine A2a receptor (Homo sapiens, UniProt P29274).
T1 construct: expressed in transfected cells; host or cells: CHO-K1
In words: Adenosine A2a Receptor Functional Assay (A2AGAL2). In kind it is cell-based. To be noted: CHO-K1 cells overexpressing human A2a, cAMP inducible beta-galactosidase reporter, 15 nM NECA agonist challenge. As to the method:
Adenosine A2a Receptor Functional Assay (A2AGAL2)
To initiate the functional assay, cryopreserved CHO-K1 cells overexpressing the human adenosine A2a receptor and containing a cAMP inducible beta-galactosidase reporter gene were thawed, centrifuged, DMSO containing media removed, and then seeded with fresh culture media into clear 384-well tissue culture treated plates (BD #353961) at a concentration of 10K cells/well. Prior to assay, these plates were cultured for two days at 37° C., 5% CO2, 90% Rh. On the day of the functional assay, culture media was removed and replaced with 45 uL assay medium (Hams/F-12 Modified (Mediatech #10-080CV) supplemented w/0.1% BSA). Test compounds were diluted and 11 point curves created at a 1000× concentration in 100% DMSO. Immediately after addition of assay media to the cell plates, 50 nL of the appropriate test compound antagonist or agonist control curves were added to cell plates using a Cartesian Hummingbird. Compound curves were allowed to incubate at room temperature on cell plates for approximately 15 minutes before addition of a 15 nM NECA (Sigma E2387) agonist challenge (5 uL volume). A control curve of NECA, a DMSO/Media control, and a single dose of Forskolin (Sigma F3917) were also included on each plate. After additions, cell plates were allowed to incubate at 37° C., 5% CO2, 90% Rh for 5.5-6 hours. After incubation, media was removed, and cell plates were washed 1× 50 uL with DPBS w/o Ca & Mg (Mediatech 21-031-CV). Into dry wells, 20 uL of 1× Reporter Lysis Buffer (Promega E3971 (diluted in dH2O from 5× stock)) was added to each well and plates frozen at −20° C. overnight. For β-galactosidase enzyme calorimetric assay, plates were thawed out at room temperature and 20 μL 2× assay buffer (Promega) was added to each well. Color was allowed to develop at 37° C., 5% CO2, 90% Rh for 1-1.5 h or until reasonable signal appeared. The calorimetric reaction was stopped with the addition of 60 μL/well 1M sodium carbonate. Plates were counted at 405 nm on a SpectraMax Microplate Reader (Molecular Devices). Data was analyzed in Microsoft Excel and IC/EC50 curves were fit using a standardized macro.

For assay [2], the target named is T2, human A2a adenosine receptor (Homo sapiens, UniProt P29274).
T2 construct: purchased PerkinElmer RB-HA2a; host or cells: HEK293 plasma membrane
T2 sequence (P29274 whole entry): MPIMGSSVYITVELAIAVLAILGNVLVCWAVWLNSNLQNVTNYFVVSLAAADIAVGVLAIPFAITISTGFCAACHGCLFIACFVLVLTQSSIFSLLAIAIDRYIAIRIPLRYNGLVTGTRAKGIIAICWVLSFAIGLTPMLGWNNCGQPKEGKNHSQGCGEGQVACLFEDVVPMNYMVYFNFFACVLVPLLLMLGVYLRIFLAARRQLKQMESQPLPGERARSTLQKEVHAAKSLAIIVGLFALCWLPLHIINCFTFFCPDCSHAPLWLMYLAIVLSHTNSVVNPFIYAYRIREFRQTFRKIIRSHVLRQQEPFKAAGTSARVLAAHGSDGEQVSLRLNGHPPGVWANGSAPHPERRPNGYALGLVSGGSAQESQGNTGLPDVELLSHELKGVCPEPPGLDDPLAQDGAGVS
In words: Ligand Binding Assay for Adenosine A2a Receptor (A2A-B). The note with it: plasma membrane of HEK293 cells containing human A2a receptor, radioligand [3H]CGS21680. The method, then:
Ligand Binding Assay for Adenosine A2a Receptor
Ligand binding assay of adenosine A2a receptor was performed using plasma membrane of HEK293 cells containing human A2a adenosine receptor (PerkinElmer, RB-HA2a) and radioligand [^3H]CGS21680 (PerkinElmer, NET1021). Assay was set up in 96-well polypropylene plate in total volume of 200 μL by sequentially adding 20 μL 1:20 diluted membrane, 130 μL assay buffer (50 mM Tris.HCl, pH 7.4 10 mM MgCl2, 1 mM EDTA) containing [^3H] CGS21680, 50 μL diluted compound (4×) or vehicle control in assay buffer. Nonspecific binding was determined by […] NECA. Reaction was carried out at room temperature for 2 hours before filtering through 96-well GF/C filter plate pre-soaked in 50 mM Tris.HCl, pH 7.4 containing 0.3% polyethylenimine. Plates were then washed 5 times with cold 50 mM Tris.HCl, pH 7.4, dried and sealed at the bottom. Microscintillation fluid 30 μL was added to each well and the top sealed. Plates were counted on Packard Topcount for [^3H]. Data was analyzed in Microsoft Excel and GraphPad Prism programs. (Varani, K.; Gessi, S.; Dalpiaz, A.; Borea, P. A. British Journal of Pharmacology, 1996, 117, 1693)

Assay [3] addresses T3, human adenosine A1 receptor (Homo sapiens, UniProt P30542).
T3 construct: expressed in transfected cells; host or cells: CHO-K1
T3 sequence (P30542 1-326): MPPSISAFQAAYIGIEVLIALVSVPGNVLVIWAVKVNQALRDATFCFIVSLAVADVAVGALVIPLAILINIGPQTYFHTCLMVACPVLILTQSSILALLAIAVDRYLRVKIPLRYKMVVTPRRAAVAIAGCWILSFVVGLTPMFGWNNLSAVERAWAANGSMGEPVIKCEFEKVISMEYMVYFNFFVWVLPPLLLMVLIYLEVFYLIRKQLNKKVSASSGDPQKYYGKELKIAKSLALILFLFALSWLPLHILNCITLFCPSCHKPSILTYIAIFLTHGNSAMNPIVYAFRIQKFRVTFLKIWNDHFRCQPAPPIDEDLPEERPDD
In words: Adenosine A1 Receptor Functional Assay (A1GAL2). The assay is classed as cell-based. To be noted: CHO-K1 cells overexpressing human A1, cAMP inducible beta-galactosidase reporter, 4 nM r-PIA/1 uM Forskolin challenge. The method, then:
Adenosine A1 Receptor Functional Assay (A1GAL2)
To initiate the functional assay, cryopreserved CHO-K1 cells overexpressing the human adenosine A1 receptor and containing a cAMP inducible beta-galactosidase reporter gene were thawed, centrifuged, DMSO containing media removed, and then seeded with fresh culture media into clear 384-well tissue culture treated plates (BD #353961) at a concentration of 10K cells/well. Prior to assay, these plates were cultured for two days at 37+ C., 5% CO2, 90% Rh. On the day of the functional assay, culture media was removed and replaced with 45 uL assay medium (Hams/F-12 Modified (Mediatech #10-080CV) supplemented w/0.1% BSA). Test compounds were diluted and 11 point curves created at a 1000× concentration in 100% DMSO. Immediately after addition of assay media to the cell plates, 50 nL of the appropriate test compound antagonist or agonist control curves were added to cell plates using a Cartesian Hummingbird. Compound curves were allowed to incubate at room temperature on cell plates for approximately 15 minutes before addition of a 4 nM r-PIA (Sigma P4532)/1 uM Forskolin (Sigma F3917) agonist challenge (5 uL volume). A control curve of r-PIA in 1 uM Forskolin, a DMSO/Media control, and a single dose of Forskolin were also included on each plate. After additions, cell plates were allowed to incubate at 37° C., 5% CO2, 90% Rh for 5.5-6 hours. After incubation, media was removed, and cell plates were washed 1× 50 uL with DPBS w/o Ca & Mg (Mediatech 21-031-CV). Into dry wells, 20 uL of 1× Reporter Lysis Buffer (Promega E3971 (diluted in dH2O from 5× stock)) was added to each well and plates frozen at −20° C. overnight. For β-galactosidase enzyme calorimetric assay, plates were thawed out at room temperature and 20 μL 2× assay buffer (Promega) was added to each well. Color was allowed to develop at 37° C., 5% CO2, 90% Rh for 1-1.5 h or until reasonable signal appeared. The calorimetric reaction was stopped with the addition of 60 μL/well 1M sodium carbonate. Plates were counted at 405 nm on a SpectraMax Microplate Reader (Molecular Devices). Data was analyzed in Microsoft Excel and IC/EC50 curves were fit using a standardized macro.

Drawing on US20100093722A1, “HETEROARYL AND PHENYL SUBSTITUTED THIENO[2,3-d]PYRIMIDINES AND THEIR USE AS ADENOSINE A2a RECEPTOR ANTAGONISTS” (priority 2008, published 2010), this text covers Ki for nine compounds.

T1 sequence (P29274 whole entry): as the sequence (P29274 whole entry) above

In the case of `COc1ncccc1C(O)c1cc2c(N)nc(-c3cccc(C#N)c3)nc2s1` (stereo not drawn) [Example 9, 3-{4-Amino-6-[hydroxy-(2-methoxy-pyridin-3-yl)-methyl]-thieno[2,3-d]pyrimidin-2-yl}-benzonitrile], the Ki in assay [1] was found to be 9.25 nM; in assay [2], 12.1 nM; in assay [3], 168 nM.

As for `COc1ncccc1Cc1cc2c(N)nc(-c3cccc(C#N)c3)nc2s1` [Example 10, 3-[4-Amino-6-(2-methoxy-pyridin-3-ylmethyl)-thieno[2,3-d]pyrimidin-2-yl]-benzonitrile], the values for the Ki in assay [1], in assay [2] and in assay [3] were 14.4 nM, 34.2 nM and 101 nM, respectively.

Take `N#Cc1cccc(-c2nc(N)c3cc(C(O)c4ccccn4)sc3n2)c1` (stereo not drawn) [Example 15, 3-[4-Amino-6-(hydroxy-pyridin-2-yl-methyl)-thieno[2,3-d]pyrimidin-2-yl]-benzonitrile]: the Ki in assay [1] turned out to be 5.04 nM; in assay [2], 34.3 nM; in assay [3], 152 nM.

Take `N#Cc1cccc(-c2nc(N)c3cc(C(O)c4ccncc4Cl)sc3n2)c1` (stereo not drawn) [Example 21, 3-{4-Amino-6-[(3-chloro-pyridin-4-yl)-hydroxy-methyl]-thieno[2,3-d]pyrimidin-2-yl}-benzonitrile]: the figures for the Ki in assay [1], in assay [2] and in assay [3] were 12.3 nM, 43.8 nM and 412 nM, respectively.

As to `N#Cc1cccc(-c2nc(N)c3cc(C(O)c4cccnc4Cl)sc3n2)c1` (stereo not drawn) [Example 30, 3-{4-Amino-6-[(2-chloro-pyridin-3-yl)-hydroxy-methyl]-thieno[2,3-d]pyrimidin-2-yl}-benzonitrile], the figures for the Ki in assay [1], in assay [2] and in assay [3] were 16.3 nM, 61.9 nM and 347 nM, respectively.

Regarding `COc1cccnc1C(O)c1cc2c(N)nc(-c3cccc(C#N)c3)nc2s1` (stereo not drawn) [Example 33, 3-{4-Amino-6-[hydroxy-(3-methoxy-pyridin-2-yl)-methyl]-thieno[2,3-d]pyrimidin-2-yl}-benzonitrile], the Ki in assay [1] turned out to be 4.44 nM; in assay [2] it was 6.66 nM; in assay [3], 84.2 nM.

In the case of `COc1cccnc1Cc1cc2c(N)nc(-c3cccc(C#N)c3)nc2s1` [Example 34, 3-[4-Amino-6-(3-methoxy-pyridin-2-ylmethyl)-thieno[2,3-d]pyrimidin-2-yl]-benzonitrile], the Ki in assay [1] was determined as 1.24 nM; in assay [2], 20.2 nM; in assay [3], 26.1 nM.

With `N#Cc1cccc(-c2nc(N)c3cc(Cc4cccnc4Cl)sc3n2)c1` [Example 35, 3-[4-Amino-6-(2-chloro-pyridin-3-ylmethyl)-thieno[2,3-d]pyrimidin-2-yl]-benzonitrile], the Ki in assay [1] stood at 11.4 nM; in assay [2] it was 28.4 nM; in assay [3], 713 nM.

In the case of `N#Cc1cccc(-c2nc(N)c3cc(Cc4ncccc4F)sc3n2)c1` [Example 38, 3-[4-Amino-6-(3-fluoro-pyridin-2-ylmethyl)-thieno[2,3-d]pyrimidin-2-yl]-benzonitrile], the Ki came to 1.41 nM in assay [1], 57.8 nM in assay [2] and 30 nM in assay [3].

A word on the Ki: it is the dissociation constant of the complex between target and ligand, obtained from inhibition or displacement. A low value points to a stronger hold on the target.
